The values below come from ChEMBL document CHEMBL5291721, “A preclinical secondary pharmacology resource illuminates target-adverse drug reaction associations of marketed drugs” (Nat Commun, 2023).

The target in assay [1] is T1, Type-1 angiotensin II receptor (Homo sapiens, UniProt P30556).
T1 sequence (P30556 whole entry): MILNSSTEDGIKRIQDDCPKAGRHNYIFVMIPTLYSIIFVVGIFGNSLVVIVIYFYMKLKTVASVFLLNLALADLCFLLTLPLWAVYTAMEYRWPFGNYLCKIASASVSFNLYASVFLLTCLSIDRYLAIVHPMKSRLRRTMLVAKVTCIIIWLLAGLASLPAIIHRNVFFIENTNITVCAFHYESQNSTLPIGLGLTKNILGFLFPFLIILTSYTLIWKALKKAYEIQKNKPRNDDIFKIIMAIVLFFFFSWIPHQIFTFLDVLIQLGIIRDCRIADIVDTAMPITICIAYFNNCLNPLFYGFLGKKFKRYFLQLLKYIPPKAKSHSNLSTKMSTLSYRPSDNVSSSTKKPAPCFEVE

Assay [2] addresses Vasopressin V1a receptor (Homo sapiens, UniProt P37288).
The target in assay [3] is T2, Gastrin/cholecystokinin type B receptor (Homo sapiens, UniProt P32239).
T2 sequence (P32239 whole entry): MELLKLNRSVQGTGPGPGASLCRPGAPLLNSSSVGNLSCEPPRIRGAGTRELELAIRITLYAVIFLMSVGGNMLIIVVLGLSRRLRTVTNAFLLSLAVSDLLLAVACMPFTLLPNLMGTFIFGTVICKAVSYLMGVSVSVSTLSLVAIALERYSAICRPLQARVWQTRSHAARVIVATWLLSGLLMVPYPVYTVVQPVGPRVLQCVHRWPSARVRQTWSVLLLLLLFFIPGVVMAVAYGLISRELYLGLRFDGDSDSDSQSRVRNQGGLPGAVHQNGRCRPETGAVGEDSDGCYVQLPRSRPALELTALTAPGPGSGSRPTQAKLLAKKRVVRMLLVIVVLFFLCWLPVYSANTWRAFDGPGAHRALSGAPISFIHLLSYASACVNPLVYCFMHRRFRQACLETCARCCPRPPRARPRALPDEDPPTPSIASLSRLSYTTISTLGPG

Assay [4] has as its target Cannabinoid receptor 1 (Homo sapiens, UniProt P21554). Type of assay: functional, cell-based.
Assay [5] concerns the target Growth hormone secretagogue receptor type 1 (Homo sapiens, UniProt Q92847).
The target in assay [6] is 5-hydroxytryptamine receptor 2A (Homo sapiens, UniProt P28223). The class given is functional, cell-based.
The target in assay [7] is 5-hydroxytryptamine receptor 2B (Homo sapiens, UniProt P41595). The class given is functional, cell-based.
The target of assay [8] is Melanocortin receptor 3 (Homo sapiens, UniProt P41968).
In assay [9] the target is T3, Thromboxane A2 receptor (Homo sapiens, UniProt P21731).
T3 sequence (P21731 whole entry): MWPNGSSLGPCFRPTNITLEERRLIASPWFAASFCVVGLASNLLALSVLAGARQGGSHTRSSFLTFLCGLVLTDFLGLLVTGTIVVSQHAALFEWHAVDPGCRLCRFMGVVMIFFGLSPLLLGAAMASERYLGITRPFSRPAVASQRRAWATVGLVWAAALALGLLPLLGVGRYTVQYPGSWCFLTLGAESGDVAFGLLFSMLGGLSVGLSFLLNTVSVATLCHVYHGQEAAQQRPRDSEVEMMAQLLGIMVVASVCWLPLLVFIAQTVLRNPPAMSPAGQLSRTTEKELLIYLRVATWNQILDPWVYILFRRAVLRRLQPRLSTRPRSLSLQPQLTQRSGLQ

The target in assay [10] is Sodium-dependent noradrenaline transporter (Homo sapiens, UniProt P23975).
For assay [11], the target named is D(3) dopamine receptor (Homo sapiens, UniProt P35462).
In assay [12] the target is T4, Progesterone receptor (Homo sapiens, UniProt P06401).
T4 sequence (P06401 whole entry): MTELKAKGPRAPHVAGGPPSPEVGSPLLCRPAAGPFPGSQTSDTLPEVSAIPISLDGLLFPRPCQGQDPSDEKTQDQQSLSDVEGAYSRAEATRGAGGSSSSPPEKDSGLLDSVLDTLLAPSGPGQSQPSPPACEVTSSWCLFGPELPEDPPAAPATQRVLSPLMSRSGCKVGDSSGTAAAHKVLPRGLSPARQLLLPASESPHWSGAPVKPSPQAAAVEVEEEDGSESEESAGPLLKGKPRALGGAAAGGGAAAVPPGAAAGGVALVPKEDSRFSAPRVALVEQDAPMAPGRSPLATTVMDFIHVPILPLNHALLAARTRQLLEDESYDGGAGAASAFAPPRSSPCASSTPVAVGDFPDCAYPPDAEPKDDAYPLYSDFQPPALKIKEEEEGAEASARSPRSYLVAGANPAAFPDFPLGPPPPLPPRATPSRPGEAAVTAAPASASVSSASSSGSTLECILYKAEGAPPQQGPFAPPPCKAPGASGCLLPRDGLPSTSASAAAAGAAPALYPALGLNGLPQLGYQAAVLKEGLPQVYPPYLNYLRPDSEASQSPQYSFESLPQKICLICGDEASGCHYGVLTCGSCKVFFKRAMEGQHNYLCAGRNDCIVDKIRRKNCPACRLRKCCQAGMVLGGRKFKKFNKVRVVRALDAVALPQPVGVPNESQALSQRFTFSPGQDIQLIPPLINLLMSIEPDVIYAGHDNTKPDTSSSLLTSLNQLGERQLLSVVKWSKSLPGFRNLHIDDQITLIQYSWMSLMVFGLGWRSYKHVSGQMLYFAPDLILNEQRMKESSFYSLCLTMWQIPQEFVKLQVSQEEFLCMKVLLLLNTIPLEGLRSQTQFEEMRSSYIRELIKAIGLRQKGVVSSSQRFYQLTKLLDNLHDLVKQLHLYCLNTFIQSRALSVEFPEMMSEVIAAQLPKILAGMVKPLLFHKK
The class given is functional.
Note: assay procedure not described here.

Cannabinoid receptor 1, sequence (P21554 whole entry): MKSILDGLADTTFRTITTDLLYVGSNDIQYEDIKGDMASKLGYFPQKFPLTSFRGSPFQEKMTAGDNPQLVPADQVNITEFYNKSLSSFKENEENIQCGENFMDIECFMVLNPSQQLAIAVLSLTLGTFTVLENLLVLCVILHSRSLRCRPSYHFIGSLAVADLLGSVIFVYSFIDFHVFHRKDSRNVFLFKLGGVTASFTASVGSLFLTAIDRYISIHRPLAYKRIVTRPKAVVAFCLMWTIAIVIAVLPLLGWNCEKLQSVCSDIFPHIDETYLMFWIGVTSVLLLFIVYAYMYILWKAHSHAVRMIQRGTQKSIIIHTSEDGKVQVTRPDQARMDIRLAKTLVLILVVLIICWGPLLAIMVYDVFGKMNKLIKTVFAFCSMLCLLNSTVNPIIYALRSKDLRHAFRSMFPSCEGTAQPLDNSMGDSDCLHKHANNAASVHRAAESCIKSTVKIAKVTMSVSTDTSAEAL
Vasopressin V1a receptor, sequence (P37288 whole entry): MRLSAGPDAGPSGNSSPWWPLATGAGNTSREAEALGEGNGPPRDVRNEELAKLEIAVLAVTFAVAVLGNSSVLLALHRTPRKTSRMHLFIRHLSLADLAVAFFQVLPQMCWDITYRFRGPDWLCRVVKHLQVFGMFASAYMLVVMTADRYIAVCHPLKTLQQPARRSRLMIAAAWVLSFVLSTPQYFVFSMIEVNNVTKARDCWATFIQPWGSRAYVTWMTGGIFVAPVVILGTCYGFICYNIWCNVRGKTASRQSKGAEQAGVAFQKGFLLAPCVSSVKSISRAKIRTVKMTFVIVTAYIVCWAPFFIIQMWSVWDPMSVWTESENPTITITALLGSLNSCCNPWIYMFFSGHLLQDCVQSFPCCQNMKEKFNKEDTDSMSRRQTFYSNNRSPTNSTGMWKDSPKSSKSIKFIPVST
D(3) dopamine receptor, sequence (P35462 whole entry): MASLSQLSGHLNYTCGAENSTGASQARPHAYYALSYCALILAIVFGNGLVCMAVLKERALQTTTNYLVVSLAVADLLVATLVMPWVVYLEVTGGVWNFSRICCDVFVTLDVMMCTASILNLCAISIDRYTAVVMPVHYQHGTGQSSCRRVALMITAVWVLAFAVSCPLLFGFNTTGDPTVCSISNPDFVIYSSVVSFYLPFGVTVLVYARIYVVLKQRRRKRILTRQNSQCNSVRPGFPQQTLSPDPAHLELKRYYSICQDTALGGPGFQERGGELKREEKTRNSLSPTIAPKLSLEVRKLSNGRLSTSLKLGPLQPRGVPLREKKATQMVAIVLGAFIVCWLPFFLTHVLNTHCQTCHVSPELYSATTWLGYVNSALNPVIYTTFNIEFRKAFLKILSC
Growth hormone secretagogue receptor type 1, sequence (Q92847 whole entry): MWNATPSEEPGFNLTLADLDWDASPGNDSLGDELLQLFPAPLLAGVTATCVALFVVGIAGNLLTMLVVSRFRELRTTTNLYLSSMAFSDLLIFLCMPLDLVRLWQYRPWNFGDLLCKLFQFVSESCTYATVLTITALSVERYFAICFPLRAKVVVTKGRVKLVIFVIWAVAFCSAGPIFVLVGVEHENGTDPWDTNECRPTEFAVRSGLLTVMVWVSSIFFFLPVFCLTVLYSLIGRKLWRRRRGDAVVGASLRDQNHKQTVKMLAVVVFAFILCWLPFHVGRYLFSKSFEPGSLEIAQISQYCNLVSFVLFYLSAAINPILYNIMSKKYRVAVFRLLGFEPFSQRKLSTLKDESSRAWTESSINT
Melanocortin receptor 3, sequence (P41968 whole entry): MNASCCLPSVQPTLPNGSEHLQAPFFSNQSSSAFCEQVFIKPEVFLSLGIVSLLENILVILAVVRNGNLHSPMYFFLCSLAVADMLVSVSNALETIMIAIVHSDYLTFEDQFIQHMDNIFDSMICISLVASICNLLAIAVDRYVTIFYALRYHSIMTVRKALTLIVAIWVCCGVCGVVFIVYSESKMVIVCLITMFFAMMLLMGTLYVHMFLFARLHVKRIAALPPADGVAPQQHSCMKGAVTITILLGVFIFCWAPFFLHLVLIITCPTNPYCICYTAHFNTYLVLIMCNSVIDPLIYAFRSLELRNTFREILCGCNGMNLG
5-hydroxytryptamine receptor 2B, sequence (P41595 whole entry): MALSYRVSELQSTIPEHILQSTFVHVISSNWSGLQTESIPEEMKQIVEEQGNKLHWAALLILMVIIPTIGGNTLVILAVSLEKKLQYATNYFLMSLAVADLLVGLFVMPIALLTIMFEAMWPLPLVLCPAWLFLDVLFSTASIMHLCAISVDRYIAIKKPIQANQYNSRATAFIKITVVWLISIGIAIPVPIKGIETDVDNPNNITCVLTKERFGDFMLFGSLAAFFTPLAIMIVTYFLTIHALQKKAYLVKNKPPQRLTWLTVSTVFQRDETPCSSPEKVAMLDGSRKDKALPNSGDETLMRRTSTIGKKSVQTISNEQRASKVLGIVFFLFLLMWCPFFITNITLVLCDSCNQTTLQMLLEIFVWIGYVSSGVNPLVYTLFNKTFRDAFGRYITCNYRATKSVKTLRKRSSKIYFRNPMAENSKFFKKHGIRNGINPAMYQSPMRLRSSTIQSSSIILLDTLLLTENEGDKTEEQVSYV
Sodium-dependent noradrenaline transporter, sequence (P23975 whole entry): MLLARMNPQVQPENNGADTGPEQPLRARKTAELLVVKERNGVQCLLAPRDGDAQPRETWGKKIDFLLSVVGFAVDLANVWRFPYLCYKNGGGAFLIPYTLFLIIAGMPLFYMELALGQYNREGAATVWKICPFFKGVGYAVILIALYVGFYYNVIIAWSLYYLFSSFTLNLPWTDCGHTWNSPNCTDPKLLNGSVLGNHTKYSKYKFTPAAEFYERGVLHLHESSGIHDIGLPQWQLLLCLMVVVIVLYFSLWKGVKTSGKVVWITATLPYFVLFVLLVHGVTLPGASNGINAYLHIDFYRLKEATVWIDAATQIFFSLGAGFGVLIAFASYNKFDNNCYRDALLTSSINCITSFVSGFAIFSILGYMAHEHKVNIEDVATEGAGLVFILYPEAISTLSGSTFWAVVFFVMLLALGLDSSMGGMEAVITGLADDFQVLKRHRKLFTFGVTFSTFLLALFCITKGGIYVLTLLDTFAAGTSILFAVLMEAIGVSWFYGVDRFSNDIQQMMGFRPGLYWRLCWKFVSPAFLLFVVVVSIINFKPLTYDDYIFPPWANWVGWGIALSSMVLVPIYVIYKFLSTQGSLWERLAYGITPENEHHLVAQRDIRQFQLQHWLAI
5-hydroxytryptamine receptor 2A, sequence (P28223 whole entry): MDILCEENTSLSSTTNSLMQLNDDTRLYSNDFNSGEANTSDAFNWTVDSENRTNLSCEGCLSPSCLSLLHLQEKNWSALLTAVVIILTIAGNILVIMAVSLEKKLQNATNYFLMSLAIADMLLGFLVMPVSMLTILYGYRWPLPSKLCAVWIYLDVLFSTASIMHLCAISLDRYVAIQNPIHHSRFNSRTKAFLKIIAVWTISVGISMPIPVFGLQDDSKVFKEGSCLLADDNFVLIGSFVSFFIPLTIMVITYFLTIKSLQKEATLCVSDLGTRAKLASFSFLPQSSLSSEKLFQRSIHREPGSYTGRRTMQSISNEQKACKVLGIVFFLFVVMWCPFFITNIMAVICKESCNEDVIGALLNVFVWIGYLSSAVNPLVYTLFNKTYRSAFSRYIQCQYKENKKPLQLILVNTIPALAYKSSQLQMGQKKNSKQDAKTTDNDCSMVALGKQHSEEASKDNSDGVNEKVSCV

With `CN1CC(=O)N2[C@H](c3ccc4c(c3)OCO4)c3[nH]c4ccccc4c3C[C@@H]2C1=O`, the AC50 in assay [1], in [2], in assay [3], in assay [4], in assay [5] and in assay [6] was more than 30 µM each time. Besides, the AC50 (as a rule, the concentration giving half of the maximal activity seen) was more than 10 µM in assay [7]; more than 30 µM in [8]; more than 30 µM in assay [9]; more than 30 µM in [10]; more than 30 µM in [11].
For the compound `CC(=O)OCC(=O)[C@@]12OC3(CCCC3)O[C@@H]1C[C@H]1[C@@H]3CCC4=CC(=O)C=C[C@]4(C)[C@@]3(F)[C@@H](O)C[C@@]12C` [AMCINONIDE], the AC50 in assay [1], in assay [2], in [5], in assay [6], in assay [7] and in [8] was more than 10 µM each time. Besides, the AC50 in [12] was 0.212 µM; in assay [9] it was more than 10 µM; in assay [10] it was more than 10 µM; in assay [11], more than 30 µM.
Turning to `CN1CCc2cccc3c2[C@H]1Cc1ccc(O)c(O)c1-3` [APOMORPHINE], the AC50 in assay [1] is more than 30 µM; in assay [2], more than 30 µM; in [3], 23.4 µM; in assay [4] it was more than 30 µM; in assay [5], more than 30 µM; in assay [6], 1.79 µM. For the same compound, the AC50 in [7] was 4.7 µM; in assay [8], more than 30 µM; in [9], more than 30 µM; in assay [10] it was more than 30 µM.
As to `NC(CO)C(=O)NNCc1ccc(O)c(O)c1O` (stereo not given) [BENSERAZIDE], the AC50 in assay [1], in assay [2], in assay [3], in assay [4], in [5] and in [6] was more than 30 µM each time. Besides, the AC50 in assay [7] was more than 10 µM; in assay [8], more than 30 µM; in assay [9] it was more than 30 µM; in assay [10] it was more than 30 µM; in assay [11], more than 30 µM.
In the case of `CN(C)C(=O)OC1N=C(c2ccccc2)c2cc(Cl)ccc2N(C)C1=O` (stereo not given) [CAMAZEPAM], the AC50 in [1] is more than 30 µM; in [2] it was more than 10 µM; in [3] it was more than 30 µM; in [4], more than 30 µM; in assay [5], more than 30 µM; in [6], more than 30 µM. Besides, the AC50 was 18 µM in assay [7]; more than 30 µM in assay [8]; more than 30 µM in assay [9]; more than 10 µM in assay [10]; more than 10 µM in [11].
Regarding `CN1C(=O)CC(=O)N(c2ccccc2)c2cc(Cl)ccc21` [CLOBAZAM], the AC50 in [1], in assay [2], in [5], in assay [6], in assay [7] and in assay [8] was more than 10 µM throughout. The AC50 in assay [12] is more than 10 µM; in assay [9], more than 10 µM; in assay [10], more than 10 µM; in [11] it was more than 30 µM.
In the case of `C#CC1(OC(N)=O)CCCCC1` [ETHINAMATE], the AC50 is more than 30 µM in [1]; more than 10 µM in [2]; more than 10 µM in assay [5]; more than 10 µM in [6]; more than 10 µM in assay [7]; more than 10 µM in [8]. The AC50 in assay [12] was more than 10 µM; in assay [9] it was more than 10 µM; in [10], more than 10 µM; in [11], more than 30 µM.
For the compound `O=C(CCCCC(=O)Nc1c(I)cc(I)c(C(=O)O)c1I)Nc1c(I)cc(I)c(C(=O)O)c1I` [IODIPAMIDE], the AC50 in assay [1], in assay [2], in assay [5], in [6], in assay [7] and in [8] was more than 10 µM in each case. Besides, the AC50 in assay [12] is more than 10 µM; in assay [9] it was more than 10 µM; in [10], more than 10 µM; in [11] it was more than 30 µM.
For `CC/C=C\C/C=C\C/C=C\CCCCCCCC(=O)O` [LINOLENIC ACID], the AC50 in [1], in assay [2], in assay [3], in [4], in [5] and in [6] was more than 30 µM throughout. The AC50 in assay [8], in assay [9], in assay [10] and in assay [11] was more than 30 µM in each case.
Take `Cc1cc(-c2ccccc2)nnc1NCCN1CCOCC1` [MINAPRINE]: the AC50 in [1] is more than 30 µM; in assay [2] it was more than 10 µM; in [3], more than 30 µM; in assay [4] it was more than 30 µM; in [5], more than 30 µM; in assay [6], more than 30 µM. For the same compound, the AC50 was 5.4 µM in assay [7]; more than 30 µM in assay [8]; more than 30 µM in assay [9]; more than 10 µM in [10]; more than 10 µM in assay [11].
`O=C(O)CCCc1ccccc1` [PHENYLBUTANOIC ACID]: the AC50 in assay [1] was more than 10 µM; in assay [2], more than 30 µM; in assay [3] it was more than 10 µM; in [5] it was more than 10 µM; in [6], more than 30 µM; in [7], more than 30 µM. Also, the half-maximal activity concentration (AC50) in assay [8] is more than 10 µM; in assay [9], more than 10 µM; in assay [10], more than 10 µM; in [11] it was more than 30 µM.
Regarding `CC(Cc1ccccc1)NCCC(c1ccccc1)c1ccccc1` (stereo not given) [PRENYLAMINE], the AC50 in [1] was more than 30 µM; in assay [2] it was more than 30 µM; in [3] it was more than 30 µM; in assay [5], 3 µM; in assay [6] it was more than 30 µM; in assay [7] it was more than 10 µM. Further, the AC50 in assay [8] is more than 30 µM; in assay [9] it was more than 30 µM; in assay [10], 2.3 µM; in [11], 2.4 µM.
For the compound `C1COC(NC(C2CC2)C2CC2)=N1` [RILMENIDINE], the AC50 in assay [1], in assay [2], in assay [3], in assay [4], in [5] and in [6] was more than 30 µM each time. Further, the AC50 in assay [7] is more than 10 µM; in assay [8] it was more than 30 µM; in assay [9] it was more than 30 µM; in assay [10], more than 30 µM; in [11], more than 10 µM.
